Patent publication US20160157479A1, “ANTIFUNGAL COMPOSITION AND METHOD” (OMEX INTERNATIONAL LIMITED, priority 2013, published 2016)

Assays:
[1] = Light-fastness study (Oxynex ST photostabiliser); type: physicochemical; conditions: 0.1% vanillin, light box 5000 lux
Description: A composition without any photostabiliser was used as a base composition (no photostabiliser).
Method: Each formulation was diluted with water to 0.1% vanillin (as pure) and 5 mL was applied by pipette to a glass petri dish. The dishes were left to stand in a light box fitted with 2×40 W fluorescent daylight bulbs with an illumination intensity of 5000 lux. The dishes were extracted with methanol and made up to 25 mL in a volumetric flask after 3 and 5 days. Samples were then analysed by HPLC.

[2] = Light-fastness study, addition of ascorbic acid; type: physicochemical; conditions: 0.1% vanillin, 1500 Lux 5 hours per day
Description: The formulations used for these experiments are described in TABLE 10. Oxynex ST (5%) and Oxynex ST (5%) with ascorbic acid (1%) were added to the composition to determine the effect on photostability.
(§1) Method: Formulations were diluted with water to 0.1% vanillin and 5 mL transferred by pipette to a 100 mL crystallising dish. All dishes were placed in a light box containing two 60 cm high efficiency 24 W fluorescent bulbs housed in a canopy to provide bright, full spectrum lighting closely resembling daylight (6400 Kelvin). The dishes were covered with muslin sheets to reduce the intensity of the light to 1500 Lux on a programme of 5 hours per day. At specific time intervals the dishes were extracted and made up to volume with methanol. Samples were analysed by HPLC.

[3] = Light-fastness study, ratio of Oxynex ST:ascorbic acid; type: physicochemical; conditions: 0.1% vanillin, 1500 Lux 5 hours per day
Description: The formulations used for these experiments are described in TABLE 12. Various ratios of Oxynex ST and ascorbic acid were used in the composition to determine the effect on photostability.
as §1

[4] = Photodecomposition study; type: physicochemical; conditions: 0.1% vanillin
Description: The following samples were prepared by diluting down the specified composition with water: • VS, vanillin solution in water @ 0.1% vanillin; • 0.4% dilution of RBEF-024 (0.1% vanillin); and • 0.4% dilution of RBEF-030 (0.1% vanillin). • 5 ml of the diluted material was pipetted into 3 pyrex crystallisation dishes; the surface was covered with muslin and the samples placed in a light box for 1, 3 and 5 days respectively with high intensity white light applied for 5 hours out of every 24 hours.
As a control, three equivalent samples were placed in crystallisation dishes which were placed in the dark (inside a cupboard).
At the end of each time period the contents of the crystallisation dishes were washed out with 4×5 mL methanol (magnetic stirrer used at each addition to dissolve any solid vanillin) and the washings transferred to a 25 mL volumetric flask and made up to volume with methanol.
As an initial control (t=0 days), 5 mL of each dilution was pipetted into a 25 mL volumetric flask and made up to volume with methanol.

[5] = test system: cabbage leaf discs; experiment: Effect of composition on leaf-penetration; conditions: 0.1% vanillin
Description: 14.5 cm cabbage leaf discs were cut and placed in a petri dish and treated with a diluted composition. At the same time a second petri dish (control) was treated with the same diluted composition with no leaf present and stored in the dark for the duration of the test.
Test time periods were 1, 2, 4, 6 & 24 hours after application. The application was performed using an artist's air brush at low pressure to give a deposit of circa 2 g of spray diluted composition.
At the appropriate time period, the leaf disc was washed with methanol and the washings collected and made up to 25 mL with methanol. The appropriate control petri dish was also washed with methanol and the volume made up to 25 mL.
For each treatment a spray control was prepared by diluting 5 mL of spray liquid to 50 mL in a volumetric flask with methanol. The spray control is applied to the leaf and is used to determine the amount of vanillin applied to the leaf surface for each test.
The amount of vanillin washed from the leaf surface was subtracted from the amount washed from the petri dish control to determine how much of the vanillin has moved into the leaf sub-surface layer as a function of the formulation.

COc1cc(C=O)ccc1O [0.1% Vanillin Technical in water, 4-Hydroxy-3-methoxybenzaldehyde]
Loss (%) ([1]; 3 days): 6.18%
Vanillin ([1]; 3 days): 177.65 mg/L
Loss (%) ([1]; 5 days): 8.49%
Concentration (mg/dish) ([2]; 0 days): 5.87 mg/dish
Loss (%) ([2]; 0 days): 0.00%
Concentration (mg/dish) ([2]; 1 day): 5.85 mg/dish
Loss (%) ([2]; 1 day): 0.34%
Loss (%) ([2]; 3 days): 3.92%
Concentration (mg/dish) ([2]; 7 days): 5.53 mg/dish
Loss (%) ([2]; 7 days): 5.79%
Concentration (mg/dish) ([2]; 14 days): 5.22 mg/dish
Vanillin (mg/L) 2 ([3]; 0 days): 200.48 mg/L
Vanillin mg/dish ([3]; 0 days): 5.02 mg/dish
Loss (%) ([3]; 1 day): −1.19%
Vanillin mg/dish ([3]; 1 day): 4.96 mg/dish
Loss (%) ([3]; 2 days): −0.11%
Vanillin mg/dish ([3]; 2 days): 4.96 mg/dish
Loss (%) ([3]; 3 days): −1.17%
Vanillin mg/dish ([3]; 3 days): 4.90 mg/dish
% Vanillin lost by photo-decomposition ([4]; 0 days): 0.0%
% Vanillin lost by photo-decomposition ([4]; light box 5 of 24 hours, 1 day): +0.08%
% Vanillin lost by photo-decomposition ([4]; light box 5 of 24 hours, 3 day): +1.50%
% Vanillin lost by photo-decomposition ([4]; light box 5 of 24 hours, 5 day): +2.08%
% Vanillin penetrating through leaf cuticle surface ([5]; 1 hour after application): 0.4%
% Vanillin penetrating through leaf cuticle surface ([5]; 2 hour after application): 2.5%
% Vanillin penetrating through leaf cuticle surface ([5]; 4 hour after application): 1.7%
% Vanillin penetrating through leaf cuticle surface ([5]; 6 hour after application): 5.0%
% Vanillin penetrating through leaf cuticle surface ([5]; 24 hour after application): 8.5%
